The source of these data is patent publication US20230219969A1 (priority 2020, published 2023).

Read-outs that look alike come from different tables or passages of the source.

In assay [1] the target is T1, 5HT2A (Homo sapiens, UniProt P28223). Nature of the assay: Serotonin 5-HT2A in vitro cellular IPOne agonism assay. In kind it is cell-based. The arrangement: host or cells: CHO-K1. The protocol:
Serotonin 5-HT2A In Vitro Cellular IPOne Agonism Assay. The 5-HT2A IPOne HTRF assay was performed at Epics Therapeutics S.A. (Belgium, FAST-0505I) using conventional methods. Briefly, CHO-K1 cells expressing human recombinant 5-HT2A receptor grown to mid-log phase in culture media without antibiotics were detached with PBS-EDTA, centrifuged, and resuspended in medium without antibiotics buffer. 20,000 cells are distributed in a 96 well plate and incubated overnight at 37° C. with 5% CO2.
For agonist testing, the medium is removed and 20 μl of assay buffer plus 20 μl of test compound or reference agonist are added in each well. The plate is incubated for 60 min. at 37° C. with 5% CO2.
After addition of the lysis buffer containing IP1-d2 and anti-IP1 cryptate detection reagents, plates are incubated 1-hour at room temperature, and fluorescence ratios are measured according to the manufacturer specification, with the HTRF kit.
(§1) The compounds provided herein were tested in the Serotonin 5-HT2A and 5-HT2C in vitro radioligand binding and cellular IPOne agonism assays. The binding and agonism functional potencies of several compound provided herein compounds (as indicated by their IC50s or EC50s) are shown in Table 11.

Assay [2] deals with T1, 5HT2A. Nature of the assay: Serotonin 5-HT2A in vitro radioligand binding competition assay ([3H]-DOI). Further details: purchased Epics Therapeutics S.A. (Belgium) FAST-0505B. The protocol:
Serotonin 5-HT2A In Vitro Radioligand Binding Competition Assay. The 5-HT2A radioligand binding competition assay was performed at Epics Therapeutics S.A. (Belgium, FAST-0505B) using conventional methods. Briefly, competition binding is performed in duplicate in the wells of a 96 well plate (Master Block, Greiner, 786201) containing binding buffer (optimized for each receptor), membrane extracts (amount of protein/well optimized for each receptor), radiotracer [^3H]-DOI (final concentration optimized for each receptor) and test compound. Nonspecific binding is determined by co-incubation with 200-fold excess of cold competitor. The samples are incubated in a final volume of 0.1 ml at a temperature and for a duration optimized for each receptor and then filtered over filter plates. Filters are washed six times with 0.5 ml of ice-cold washing buffer (optimized for each receptor) and 50 μl of Microscint 20 (Packard) are added in each well. The plates are incubated 15 min on an orbital shaker and then counted with a TopCount™ for 1 min/well.
as §1

Setting [3] is: CHO-K1 cells, IPOne HTRF, read-out: 5-HT2A IPOne Agonism Activity.
Setting [4] is: [3H]-DOI competition, membrane extracts, read-out: 5-HT2A Radioligand Binding Activity.

T1 sequence (P28223 whole entry): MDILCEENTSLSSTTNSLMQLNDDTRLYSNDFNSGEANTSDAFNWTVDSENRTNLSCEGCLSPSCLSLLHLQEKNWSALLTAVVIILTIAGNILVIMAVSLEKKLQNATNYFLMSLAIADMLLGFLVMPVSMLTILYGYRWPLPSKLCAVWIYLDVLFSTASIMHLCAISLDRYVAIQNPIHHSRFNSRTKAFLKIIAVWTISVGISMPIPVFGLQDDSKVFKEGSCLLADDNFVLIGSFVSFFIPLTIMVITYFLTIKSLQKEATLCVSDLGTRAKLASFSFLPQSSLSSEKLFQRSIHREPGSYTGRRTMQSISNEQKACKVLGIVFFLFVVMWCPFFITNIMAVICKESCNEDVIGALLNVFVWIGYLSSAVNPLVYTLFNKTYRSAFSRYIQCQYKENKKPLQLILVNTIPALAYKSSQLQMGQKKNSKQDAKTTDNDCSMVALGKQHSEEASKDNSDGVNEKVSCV

Consider `COc1ccc2c(c1)CN(CCN(C)C)C2` [Example 10, 2-(5-methoxyisoindolin-2-yl)-N,N-dimethylethan-1-amine], for which the EC50 in assay [1] (setting [3]) is greater than 10 µM. Moreover, the IC50 in assay [2] (setting [4]) was 1 to 10 µM.
Taken in the same sequence, the figures for `COc1ccc2c(c1)CCN(CCN(C)C)C2` [Example 11, 2-(6-methoxy-3,4-dihydroisoguinolin-2(1H)-yl)-N,N-dimethylethan-1-amine] were greater than 10 µM and 0.101 to 1 µM.
`CN(C)C(C)(C)Cn1ccc2c(F)c(F)ccc21` [Example 12, 1-(4,5-difluoro-1H-indol-1-yl)-N,N,2-trimethylpropan-2-amine]: in assay [1] (setting [3]), the EC50 was greater than 10 µM. Moreover, the IC50 in assay [2] (setting [4]) is greater than 10 µM.
As to `Cc1cn(CC(C)(C)N(C)C)c2ccc(F)cc12` [Example 13, 1-(5-fluoro-3-methyl-1H-indol-1-yl)-N,N,2-trimethylpropan-2-amine], the EC50 in assay [1] (setting [3]) fell in the range of 1 to 10 µM. The IC50 in assay [2] (setting [4]) is greater than 10 µM.
With `CN(C)C(C)(C)Cn1ccc2cc(F)ccc21` [Example 14, 1-(5-fluoro-1H-indol-1-yl)-N,N,2-trimethylpropan-2-amine], in assay [1] (setting [3]), the EC50 is greater than 10 µM. In assay [2] (setting [4]), the IC50 is greater than 10 µM.
Take `COc1ccc2c(ccn2CC(C)(C)N(C)C)c1F` [Example 15, 1-(4-fluoro-5-methoxy-1H-indol-1-yl)-N,N,2-trimethylpropan-2-amine]: in assay [1] (setting [3]), the EC50 was greater than 10 µM. Besides, the IC50 in assay [2] (setting [4]) is greater than 10 µM.
For `COc1cc2ccn(CC(C)(C)N(C)C)c2cc1F` [Example 16, 1-(6-fluoro-5-methoxy-1H-indol-1-yl)-N,N,2-trimethylpropan-2-amine], the EC50 in assay [1] (setting [3]) was greater than 10 µM. For the same compound, the IC50 in assay [2] (setting [4]) was greater than 10 µM.
With `COc1cc(F)c2c(ccn2CC(C)(C)N(C)C)c1` [Example 17, 1-(7-fluoro-5-methoxy-1H-indol-1-yl)-N,N,2-trimethylpropan-2-amine], the EC50 in assay [1] (setting [3]) is greater than 10 µM. Moreover, the IC50 in assay [2] (setting [4]) is greater than 10 µM.
On to `CN(C)C(C)(C)Cn1ccc2c(F)cccc21` [Example 18, 1-(4-fluoro-1H-indol-1-yl)-N,N,2-trimethylpropan-2-amine], for which the EC50 in assay [1] (setting [3]) was greater than 10 µM. In addition, in assay [2] (setting [4]), the IC50 was greater than 10 µM.
Turning to `CN(C)C(C)(C)Cn1ccc2ccc(F)cc21` [Example 19, 1-(6-fluoro-1H-indol-1-yl)-N,N,2-trimethylpropan-2-amine], in assay [1] (setting [3]), the EC50 is greater than 10 µM. Moreover, in assay [2] (setting [4]), the IC50 is greater than 10 µM.
Turning to `CN(C)C(C)(C)Cn1ccc2cccc(F)c21` [Example 20, 1-(7-fluoro-1H-indol-1-yl)-N,N,2-trimethylpropan-2-amine], the EC50 in assay [1] (setting [3]) is greater than 10 µM. Besides, in assay [2] (setting [4]), the IC50 was greater than 10 µM.
Turning to `COc1ccc2c(ccn2CC(C)(C)N(C)C)n1` [Example 21, 1-(5-methoxy-1H-pyrrolo[3,2-b]pyridin-1-yl)-N,N,2-trimethylpropan-2-amine], in assay [1] (setting [3]), the EC50 was greater than 10 µM. In addition, the IC50 in assay [2] (setting [4]) was greater than 10 µM.
On to `COc1cc2ccn(CC(C)(C)N(C)C)c2cn1` [Example 22, 1-(5-methoxy-1H-pyrrolo[2,3-c]pyridin-1-yl)-N,N,2-trimethylpropan-2-amine], for which the EC50 in assay [1] (setting [3]) was greater than 10 µM. Further, the IC50 in assay [2] (setting [4]) was greater than 10 µM.
As for `COc1ncc2c(ccn2CC(C)(C)N(C)C)n1` [Example 23, 1-(2-methoxy-5H-pyrrolo[3,2-d]pyrimidin-5-yl)-N,N,2-trimethylpropan-2-amine], the EC50 in assay [1] (setting [3]) is greater than 10 µM. Moreover, the IC50 in assay [2] (setting [4]) is greater than 10 µM.
Take `C[C@@H](N)Cn1ccc2cncnc21` [Example 26, (R)-1-(7H-pyrrolo[2,3-d]pyrimidin-7-yl)propan-2-amine]: in assay [1] (setting [3]), the EC50 is 1 to 10 µM. Moreover, in assay [2] (setting [4]), the IC50 is greater than 10 µM.
With `COc1cnc2c(ccn2C[C@@H](C)N)c1` [Example 34, (R)-1-(5-methoxy-1H-pyrrolo[2,3-b]pyridin-1-yl)propan-2-amine], the EC50 in assay [1] (setting [3]) was 1 to 10 µM. Moreover, the IC50 in assay [2] (setting [4]) was greater than 10 µM.
On to `CN[C@H](C)Cn1ccc2cc(OC)cnc21` [Example 35, (R)-1-(5-methoxy-1H-pyrrolo[2,3-b]pyridin-1-yl)-N-methylpropan-2-amine], for which the EC50 in assay [1] (setting [3]) was greater than 10 µM. The IC50 in assay [2] (setting [4]) is greater than 10 µM.
Take `C[C@@H](N)Cn1ccc2cnccc21` [Example 37, (R)-1-(1H-pyrrolo[3,2-c]pyridin-1-yl)propan-2-amine]: in assay [1] (setting [3]), the EC50 is greater than 10 µM. In addition, the IC50 in assay [2] (setting [4]) was greater than 10 µM.
For `CN[C@H](C)Cn1ccc2cnccc21` [Example 38, (R)—N-methyl-1-(1H-pyrrolo[3,2-c]pyridin-1-yl)propan-2-amine], in assay [1] (setting [3]), the EC50 was greater than 10 µM. In assay [2] (setting [4]), the IC50 is greater than 10 µM.
Regarding `Cc1cn(CC(C)(C)N)c2ccc(F)cc12` [Example 40, 1-(5-fluoro-3-methyl-1H-indol-1-yl)-2-methylpropan-2-amine], in assay [1] (setting [3]), the EC50 was in the range of 1 to 10 µM. Also, the IC50 in assay [2] (setting [4]) is 1 to 10 µM.
Take `CC(C)(N)Cn1ccc2c(F)c(F)ccc21` [Example 41, 1-(4,5-difluoro-1H-indol-1-yl)-2-methylpropan-2-amine]: the EC50 in assay [1] (setting [3]) lay within 1 to 10 µM. Besides, the IC50 in assay [2] (setting [4]) was 1 to 10 µM.
With `COc1ccc2c(ccn2CC(C)(C)N)c1` [Example 42, 1-(5-methoxy-1H-indol-1-yl)-2-methylpropan-2-amine], the EC50 in assay [1] (setting [3]) was in the range of 1 to 10 µM. For the same compound, the IC50 in assay [2] (setting [4]) was greater than 10 µM.
On to `CN(C)CC(=O)n1ccc2cc(F)ccc21` [Example 43, 2-(dimethylamino)-1-(5-fluoro-1H-indol-1-yl)ethan-1-one], for which the EC50 in assay [1] (setting [3]) is greater than 10 µM. In assay [2] (setting [4]), the IC50 was greater than 10 µM.
For the compound `CN(C)CC(=O)n1ccc2ccccc21` [Example 44, 2-(dimethylamino)-1-(1H-indol-1-yl)ethan-1-one], the EC50 in assay [1] (setting [3]) is greater than 10 µM. In addition, the IC50 in assay [2] (setting [4]) is greater than 10 µM.
`C[C@H](C(=O)n1ccc2ccccc21)N(C)C` [Example 46, (R)-2-(dimethylamino)-1-(1H-indol-1-yl)propan-1-one] showed an EC50 in assay [1] greater than 10 µM. For the same compound, the IC50 in assay [2] was greater than 10 µM.
`C[C@H](C(=O)n1ccc2cc(F)ccc21)N(C)C` [Example 48, (R)-2-(dimethylamino)-1-(5-fluoro-1H-indol-1-yl)propan-1-one] gave an EC50 in assay [1] greater than 10 µM. In addition, in assay [2], the IC50 is greater than 10 µM.
